According to patent publication US8809366B2, “Thienopyridine ester derivative containing cyano group, preparation method, use and composition thereof” (Tianjin Institute of Pharmaceutical Research, priority 2011, dated 2014):

Assays:
[1] = rat, in vivo
[2] = test system: ADP-induced platelet aggregation; assay: Inhibiting effect on rat platelet aggregation (ADP-induced, PRP taken 2 h after intragastric administration); assay type: in vivo, Wistar rats; settings: blood 2 h after administration, ADP final concentration 1.08 μM, X ± SD
Description: Experiments of Inhibiting Effect on Rat Platelet Aggregation:
ADP: produced by SIGMA Co.
Wistar rats: SPF grade, male, provided by The Institute of Laboratory Animal Science, Chinese Academy of Medical Sciences, license No. SCXK (jing) 2005-0013.
PAM-3 Dual Channel Platelet Aggregometer: produced by Jiangsu Danyang Radio Factory.
Healthy male Wistar rats weighing 200-250 g were selected and randomly divided into groups. The experiments were carried out in three batches, and each batch was distributed into a normal control group and 6 compound groups, and totally two dose groups were tested in each batch. […] Intragastric administration with a dose volume of 10 ml/kg·bw was used. The normal control group was given the same amount of 0.5% CMC-Na. 2 h after administration, 40 mg/kg of pentobarbital sodium was intraperitoneally injected (1 ml/kg) for anesthesia, and blood was collected from the abdominal aorta. 3.8% sodium citrate was used for anticoagulation, and platelet-rich plasma (PRP) and platelet-poor plasma (PPP) were prepared respectively. Maximum percentage of ADP (final concentration: 1.08 μM) induced platelet aggregation was tested on a PAM-3 Dual Channel Platelet Aggregometer.

[3] = 1000 mg/kg intragastric once a day; from the third day of administration
Description: Two Weeks of Toxicity Studies on Rats (Compared with Clopidogrel)
100 mg/ml suspension is prepared before use, and administrated intragastricly at 1 ml/100 g every morning.
Experimental animals: SD rats weighing about 180 g, 7 female and 7 male in each group.
The same amount of solvent is administrated intragastricly to the blank control group, and equal-dose (1000 mg/kg) of Clopidogrel is administrated intragastricly to the positive control group.

[4] = 15 mg/kg intragastric, n=10, control group 74.2 ± 20.8
[5] = 30 mg/kg intragastric, n=6, control group 47.1 ± 14.2

Compound	conversion rate into active metabolites thiols, higher than Clopidogrel [1]	time to peak concentration of active metabolites [1]	Maximum percentage of aggregation [2, 4]	Maximum percentage of aggregation [2, 5]	hemorrhagic secretions around the rats' nasal [3]
CC(=O)Oc1cc2c(s1)CCN(Cc1ccc(C#N)cc1)C2 [Compound I-3]	about 5 times	50 to 60 min	22.7 ± 24.1%	8.7 ± 17.8%	
CC(=O)Oc1cc2c(s1)CCN(Cc1cccc(C#N)c1)C2 [Compound I-2, (5-(3-cyanobenzyl)-4,5,6,7-tetrahydrothieno[3,2-c]pyridin-2-yl)acetate]	about 5 times	50 to 60 min	29.8 ± 24.3%	4.9 ± 28.4%	
CC(=O)Oc1cc2c(s1)CCN(Cc1ccccc1C#N)C2 [Compound I-1, (5-(2-cyanobenzyl)-4,5,6,7-tetrahydrothieno[3,2-c]pyridin-2-yl)acetate]	about 5 times	50 to 60 min	20.5 ± 25.5%	8.4 ± 8.3%	obviously slight in the compound I-1 group than in the Clopidogrel group
COC(=O)[C@H](c1ccccc1Cl)N1CCc2sccc2C1 [Clopidogrel, reference compound]					hemorrhagic secretions around the rats' nasal can be observed
